Here are results for eight compounds from patent US12329799B2, “Peptidyl inhibitors of calcineurin-NFAT interaction” (Ohio State Innovation Foundation, priority 2018, dated 2025).

Positions of bridges follow the written chain, without caps; N, C: chain ends. Non-standard residues stand in square brackets, D forms with d. Residues, ends and D or L forms follow the SMILES beside them. Chains are numbered I, II in the order given. *: point of attachment. Benzoyl(2,3-Cl2) = O=C(c1cccc(Cl)c1Cl)*; 2Nal = N[C@@H](Cc1ccc2ccccc2c1)C(=O)O; Tle = CC(C)(C)[C@H](N)C(=O)O; AEEA = NCCOCCOCC(=O)O A value given as a limit tells only on which side of the number the result lay.

Data set [1] concerns HeLa cells. The data set can be described thus: MTT assay, HeLa. It counts as cell-based. The following applies: MTT, 72 h. The method, then: (§1) MTT Proliferation Assay. HeLa, Jurkat-Lucia, or H441 cells were seeded into a 96-well microplate (5000 cells per well) in full growth media and incubated at 37° C. overnight. A serial dilution of each compound was prepared in DPBS and then added to each well. The treated cells were incubated at 37° C. with 5% CO2 for 72 h. Following compound treatment, 10 μL of MTT stock solution was added to each well. After an additional 4 h at 37° C., 100 μL of SDS-HCl solubilizing solution was added to each well and the plate was returned to the incubator overnight at 37° C. A Tecan Infinite M1000 Pro microplate reader was used the following morning to measure the absorbance of the formazan product at 565 nm.
Potential cytotoxicity of CNI101 (SEQ ID NO: 206) and CNI103 (SEQ ID NO: 208) was tested on HeLa cells by the MTT proliferation assay. HeLa cells were seeded into a 96-well microplate (5000 cells per well) in full growth media and incubated at 37° C. overnight. A serial dilution of each inhibitor was prepared in DPBS and then added to each well. The treated cells were incubated at 37° C. with 5% CO2 for 72 h. Following compound treatment, 10 μL of MTT stock solution was added to each well. After an additional 4 h at 37° C., 100 μL of SDS-HCl solubilizing solution was added to each well and the plate was returned to the incubator overnight at 37° C. A Tecan Infinite M1000 Pro microplate reader was used the following morning to measure the absorbance of the formazan product at 565 nm.

In a further data set the test system is Jurkat cells. Nature of the data set: MTT assay, Jurkat. It counts as cell-based. The method, then: as §1
Background: Tetrazolium assays rely on reduction of a dye to a coloured formazan, in cell work by metabolically active cells.

In data set [2] the test system is NFAT-mediated luciferase expression in Jurkat cells. The data set can be described thus: NFAT luciferase assay in Jurkat cells. The following applies: qualitative. It counts as cell-based. The method, then:
In a separate experiment, CNI93 was also tested against Jurkat cells expressing a luciferase gene under the transcriptional control of NFAT.
NFAT Luciferase Assay. Jurkat-Lucia cells maintained in RPMI-1640 supplemented with 10% FBS, 1% penicillin/streptomycin (v/v/v) and 100 μg/mL normocin were harvested after a passage with 50 μg/mL selective antibiotic Zeocin at 300×RCF for 5 min. Cells were resuspended in warm RPMI-1640 with antibiotics but without FBS to a final density of 2×10^6 cells/mL and seeded into white-on-white cell-culture treated 96-well plates. To each well was added 10 μL of DPBS containing compounds which dilute to the desired concentrations followed by 170 μL of cell suspension […] and incubated at 37° C. for 2 h. The cells were induced by treatment with 50 ng/mL PMA and 3 μg/mL ionomycin, Ca^2+ salt in FBS to achieve a final FBS concentration of 10% in each well (with FBS only as control). The plate was incubated for an additional 4 h at 37° C., when 20 μL of each sample was withdrawn and mixed with 50 μL of Quanti-Luc assay solution. The luminescence of the mixture was immediately measured on a Tecan Infinite M1000 plate reader.

For the next data set, the target named is T1, Calcineurin (GST-CN) (Homo sapiens, UniProt Q08209).
T1 construct: made in house; host or cells: E. coli BL21
Nature of the data set: FA-based competition with FITC-labeled peptide 14 for binding to CN. The following applies: unlabeled; inhibition of binding of peptide 14 to CN. The method, then:
Serial dilutions of competitor peptides were prepared in PBS with 0.01% Trition-X100 and then added to the incubation solution and equilibrated at RT with gentle mixing for 1 h. Samples were pipetted into 384-well black microplates and FP signal was measured using a TECAN Infinite M1000 plate reader and analyzed using GraphPad PRISM v.6.

The next data set is described as follows: Serum stability assay. Type of data set: in vitro ADME. The following applies: 37° C. The method, then:
Serum Stability Assay. Diluted human serum (25%) (H4522 human serum, Sigma) was centrifuged at 15,000 rpm for 10 min, and the supernatant was collected. A peptide stock solution was diluted into the supernatant to a final concentration of 5 μM and incubated at 37° C. At various time points (0-24 h), 200-μL aliquots were withdrawn and mixed with 100 μL of 15% trichloroacetic acid and incubated at 4° C. overnight. The final mixture was centrifuged at 15,000 rpm for 10 min in a microcentrifuge, and the supernatant was analyzed by reversed-phase HPLC equipped with a C18 column. The amount of remaining peptide (%) was determined by integrating the area underneath the peptide peak (monitored at 214 nm) and comparing with that from the peptide at time 0.

For the next data set, the system named is plasma protein. The data set can be described thus: in vitro. The settings on record: mouse, pH 7.4. Type of data set: in vitro ADME. The arrangement: dose or concentration left out as unconfirmed. The method, then:
(§2) Plasma binding was assessed using mouse plasma obtained from in-life studies. CNI103 was diluted to […] in pre-warmed mouse plasma. The solution was added to the left chamber of a commercial plate based RED (rapid equilibrium dialysis) device. Isotonic sodium phosphate buffer (100 mM sodium phosphate, 100 mM sodium chloride, pH 7.4) was added to the outer chamber of the RED device and the plate was incubated at 37° C. for five hours. Aliquots of the buffer and the plasma were withdrawn before and after the incubation and the concentrations of free and bound test compound were determined by LC/MS/MS analysis. To test for plasma stability, the dosing solution was also incubated at 37° C. for 5 hours and the concentration of CNI103 was determined by LC/MS/MS analysis as described above.
(§3) The calculation of percentage binding is calculated using the following equations and the results are presented in Table 13: Binding %=(Cpe−Cb)/Cpe×100 • Cpe=Conc. of test compound in plasma at equilibrium • Cb=Conc. of test compound in buffer at equilibrium % Stability of test compound=(Conc. of stability sample/Conc. of time zero sample)×100 % Recovery=(Cpe+Cb)/Conc. of stability sample×100

The next data set can be described thus: in vitro. It counts as in vitro ADME. More on the design: dose or concentration left out as unconfirmed. The settings on record: mouse, plasma; for fraction unbound at 5 h: pH 7.4. As for the experimental part: as §2, §3
The subject of another data set is Caco-2 cell monolayers. The data set can be described thus: Caco-2 permeability assay. Type of data set: in vitro ADME. The method, then:
(§4) Caco-2 permeability assay. To assay the permeability of test compounds by Caco-2 cell model, Caco-2 cells were cultured to confluency before being trypsinized and seeded onto filter transwell inserts at a density of 30,000 cells/well in DMEM medium. Cells were cultured in a humidified atmosphere with 5% CO2 at 37° C. After overnight attachment, cell medium was replaced with fresh medium at both apical and basolateral sides every other day. The cell monolayers are ready for the assay 20 days post seeding. […] The dosing solution at 10 μM was obtained by diluting 10 mM stock solution in HBSS medium (pH 7.4, 25 mM HEPES) freshly before the assay. Terfenadine (25 ng/mL) and Tolbutamide (50 ng/mL) were added into dosing solution as internal standards. […] The culture medium from either the basolateral side (plate B) or apical side (plate A) were aspirated and then rinsed with HBSS medium once. Afterwards, the dosing medium was added to either basolateral or apical side. Following the incubation, 100 microliter samples from both sides were harvested at time 0 and time 90 min. Samples were quenched with acetonitrile/methanol (1:1 v/v), centrifuged, and analyzed on a Shimadzu reversed-phase HPLC and Sciex API4500 Q trap instrument.
(§5) Permeability parameters were calculated using the following equations and shown in Table 10: Papp=(Conc.receiver,90 min*Volumereceiver)/(Time*Membrane Area*Conc.donor,0 min) Efflux Ratio=Papp[B to A]/Papp[A to B]
For orientation: Caco-2 cells form a polarised layer with tight junctions and transporters.

Data set [3] in a line: Caco-2 permeability assay. It counts as in vitro ADME. The settings on record: human, Caco-2, pH 7.4. As for the experimental part:
as §4, §5

Data set [4] relates to HeLa cells. The settings on record: 100% = equal cargo concentration in cytosol and extracellular medium; cited from earlier work.

T1 sequence (Q08209 2-347 limits assumed): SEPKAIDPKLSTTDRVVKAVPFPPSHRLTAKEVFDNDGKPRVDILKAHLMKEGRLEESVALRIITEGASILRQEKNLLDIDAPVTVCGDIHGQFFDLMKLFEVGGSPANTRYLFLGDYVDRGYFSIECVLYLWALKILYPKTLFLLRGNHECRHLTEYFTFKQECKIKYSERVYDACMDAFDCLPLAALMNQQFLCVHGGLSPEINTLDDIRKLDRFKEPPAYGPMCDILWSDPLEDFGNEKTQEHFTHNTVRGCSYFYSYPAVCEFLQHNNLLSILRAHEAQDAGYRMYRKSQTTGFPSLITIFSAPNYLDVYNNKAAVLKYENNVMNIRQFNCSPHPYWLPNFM

In the case of `CC[C@H](C)[C@H](NC(=O)[C@@H](NC(=O)c1cccc(Cl)c1Cl)C(C)(C)C)C(=O)N[C@H](C(=O)N[C@H](C(=O)N[C@H](C(=O)N[C@@H](CCC(N)=O)C(=O)N[C@@H](Cc1c[nH]cn1)C(=O)N[C@H](CC(C)C)C(=O)N[C@@H](CO)C(=O)NCCOCCOCC(=O)N[C@@H](CCCCNC(=O)CC[C@@H]1NC(=O)[C@@H](CCCNC(=N)N)NC(=O)[C@H](CCCNC(=N)N)NC(=O)[C@@H](CCCNC(=N)N)NC(=O)[C@H](CCCNC(=N)N)NC(=O)[C@H](Cc2ccc3ccccc3c2)NC(=O)[C@@H](Cc2ccccc2)NC1=O)C(N)=O)[C@@H](C)O)[C@@H](C)CC)C(C)(C)C` [CNI95] (I: {Benzoyl(2,3-Cl2)}-[Tle]I[Tle]ITQH[dL]S[AEEA]K-NH2 / II: cyclo([2Nal]R[dR]R[dR]E[dF]); amide I:11-II:6 (inferred); ring closure inferred), the “concentrations decreasing cell viability” value with HeLa cells [1] and in the data set on Jurkat cells was ≥ 25 µM throughout. Moreover, the “attenuation of NFAT activity in Jurkat cells relative to CNI93” value in data set [2] is reported as “vastly superior”. Besides, the “higher potency than CNI93 in FA-based competition assay” value on Calcineurin (GST-CN) is given as ~5 fold. Moreover, the metabolised at 24 h, 5 μM in “Serum stability assay” (25% human serum, 24 h, read-out: degradation in human serum) is ~12%.

As for “VIVIT: VIVIT (SEQ ID NO: 2) peptide, a CNBM blocking NFAT (Description: CN binding motif)”, in “Serum stability assay”, the “half-life in human serum” value is listed as ~1 h and the “time to complete degradation in human serum” value is listed as ≤ 6 h.

For `C=C[C@H]1C[N@@]2CC[C@H]1C[C@@H]2[C@@H](O)c1ccnc2ccc(OC)cc12` [Quinidine], the recovery at 5 h with plasma protein came to 102%. Moreover, in “in vitro”, the amount remaining at 5 h was determined as 107% and the fraction unbound – broadly, free concentration divided by total concentration – at 5 h was 0.243.

As for `CC(C)NCC(O)COc1cccc2ccccc12` (stereo not drawn) [Propranolol, reference compound], in the data set on Caco-2 cell monolayers, the “Pgp Substrate” value is on record as “No”. The Papp B→A – broadly, the apparent permeability from the basolateral to the apical side of a cell layer – at 90 min, 10 μM in [3] (N = 2, 10 μM, 90 min) was found to be 26 ×10⁻⁶ cm/s. In addition, the efflux ratio (usually a quotient of directional permeabilities that is used to spot active efflux) at 90 min, 10 μM in data set [3] (Papp[B to A]/Papp[A to B]) was found to be 0.7.

`CC(=O)CC(c1ccccc1)c1c(O)c2ccccc2oc1=O` (stereo not drawn) [Warfarin]: in the data set on plasma protein, the recovery at 5 h was 103%. In addition, in “in vitro”, the fraction remaining at 5 h came to 101% and the fraction unbound at 5 h was 0.086.

Turning to `CC(C)CN(C[C@@H](O)[C@H](Cc1ccccc1)NC(=O)O[C@H]1CCOC1)S(=O)(=O)c1ccc(N)cc1` [Amprenavir, reference compound], the “Pgp Substrate” value in the data set with Caco-2 cell monolayers is listed as “Yes”.

In the case of `CCOc1ccc(NC(C)=O)cc1` [Phenacetine], the recovery at 5 h in the data set on plasma protein turned out to be 73.3%. Further, in “in vitro”, the share remaining at 5 h came to 73.8% and the fraction unbound at 5 h is 0.635.

Turning to “cyclic (fΦRrRrQ) (cyclo([dF][2Nal]R[dR]R[dR]Q); SMILES N=C(N)NCCC[C@@H]1NC(=O)[C@H](Cc2ccc3ccccc3c2)NC(=O)[C@@H](Cc2ccccc2)NC(=O)[C@H](CCC(N)=O)NC(=O)[C@@H](CCCNC(=N)N)NC(=O)[C@H](CCCNC(=N)N)NC(=O)[C@@H](CCCNC(=N)N)NC1=O) [CPP9]”, in the data set with HeLa cells [4], the “absolute cytosolic delivery efficiency” value is on record as 62%.
